Test results taken from patent US9241961B2, “Medicinal product for treating gastrointestinal ulcers” (BIOCEDEX, priority 2009, dated 2016).

Tests used:
[1] = tested on: gastric ibuprofen-induced ulcer; assay: model of gastric ibuprofen-induced ulcer in the rat; assay type: in vivo; conditions: ibuprofen alone 100 mg/kg/d oral for 6 days, male Wistar rat
Protocol: The inventors determined the anti-ulcer effect of Saccharomyces boulardii in the model of gastric ibuprofen-induced ulcer in the rat according to the protocol of Abraham et al. (2005) Dig Dis Sci 50:1 632-1 640. Male Wistar rats obtained from Janvier weighing between 200 and 220 grams are used after acclimatization for at least 7 days in the animal house (temp.=22 ±2° C.; humidity: 50±20%; food SAFE “A04”; nyctohemeral cycle: 12 hours of light and 12 hours of darkness). On D1, the rat receives the test product or the solvent by the oral route. Then, 1 hour later, the rat receives ibuprofen at 100 mg/kg by the oral route, or the solvent for the control group. The rats receive these treatments for 6 consecutive days. The animals go without food for 14-16 hours before the last administration of ibuprofen, but have access to drink. They are placed individually in a metal cage, the floor of which is a grating, to prevent coprophagia. On D6 the rat is sacrificed. […] Macroscopic evaluation of the gastric lesions is carried out as follows: • the stomach is spread out on a cork support with pins; • the number of ulcers on each stomach is counted; • the ulcerated area (mm^2) of haemorrhagic lesions is measured with a grid of squares (×10) and a stereo-microscope (Leica Wild M8) by measuring the length (mm) and width (mm) of each ulceration. […]

[2] = development of body weight of the rats during 6-day oral treatment; assay type: in vivo; conditions: Sb 0.3-1.0-3.0 g/kg/d and/or ibuprofen 100 mg/kg/d, 6 days, rat
Protocol: Male Wistar rats obtained from Janvier weighing between 200 and 220 grams are used after acclimatization for at least 7 days in the animal house (temp.=22 ±2° C.; humidity: 50±20%; food SAFE “A04”; nyctohemeral cycle: 12 hours of light and 12 hours of darkness).
On D1, the rat receives the test product or the solvent by the oral route. Then, 1 hour later, the rat receives ibuprofen at 100 mg/kg by the oral route, or the solvent for the control group. The rats receive these treatments for 6 consecutive days.

SMILES: CC(C)Cc1ccc(C(C)C(=O)O)cc1 (stereo not drawn) [ibuprofen]
- number of ulcers ([1]; gastric mucosa, recorded on day 6): 6.60±1.06 ulcers
- total area of ulceration ([1]; measured on day 6): 9.40±1.72 mm^2
- development of body weight relative to the untreated group [2]: do not alter the development of body weight
